The target of assay [1] is T1, Corticotropin-releasing factor receptor 2/Corticotropin-releasing factor-binding protein (Homo sapiens, UniProt P24387+Q13324).
T1 sequence (Q13324 whole entry): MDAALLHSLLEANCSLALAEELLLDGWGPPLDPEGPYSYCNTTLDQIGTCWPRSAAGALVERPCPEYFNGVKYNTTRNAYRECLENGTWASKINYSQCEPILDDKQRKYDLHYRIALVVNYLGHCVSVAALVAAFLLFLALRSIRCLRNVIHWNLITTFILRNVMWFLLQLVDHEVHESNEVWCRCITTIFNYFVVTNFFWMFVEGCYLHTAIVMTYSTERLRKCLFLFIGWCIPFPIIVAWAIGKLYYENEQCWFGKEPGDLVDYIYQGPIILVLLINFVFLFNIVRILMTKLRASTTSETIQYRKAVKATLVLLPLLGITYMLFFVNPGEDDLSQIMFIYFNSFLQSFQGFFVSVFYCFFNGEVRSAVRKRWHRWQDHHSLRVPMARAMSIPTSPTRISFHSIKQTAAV
T1 sequence (P24387 whole entry): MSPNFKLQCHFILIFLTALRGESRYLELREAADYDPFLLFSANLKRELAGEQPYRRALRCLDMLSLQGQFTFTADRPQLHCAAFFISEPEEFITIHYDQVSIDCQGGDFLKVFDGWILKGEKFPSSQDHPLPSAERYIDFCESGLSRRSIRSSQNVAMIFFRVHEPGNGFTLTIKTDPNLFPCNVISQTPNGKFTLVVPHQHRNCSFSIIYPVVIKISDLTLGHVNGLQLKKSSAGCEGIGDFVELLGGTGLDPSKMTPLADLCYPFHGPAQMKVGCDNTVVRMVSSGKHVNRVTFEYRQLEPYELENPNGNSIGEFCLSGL
The experiment in a line: activators of CRF receptor 2 with binding protein – uHTS hits, confirmation (AID 602473). The class given is functional. The settings on record: read-out: EC50_Mean.

Assay [2] can be described thus: CRF-BP/CRF-R2 complex antagonists, dose response, cell-based, uHTS hits, 384-well (AID 651639). The class given is functional, Homo sapiens. The note with it: read-out: IC50_Mean.
Assay [3] deals with T1, Corticotropin-releasing factor receptor 2/Corticotropin-releasing factor-binding protein. Put plainly: Dose Response confirmation of uHTS hits for small molecule antagonists of the CRF-binding protein and CRF-R2 receptor complex. The class given is functional. The note with it: read-out: IC50_Mean.
Assay [4] addresses Nuclear receptor subfamily 5 group A member 2 (Homo sapiens, UniProt O00482). The class given is functional, cell-based.
Assay [5] can be described thus: StAR promoter reporter inhibition counter-screen, dose response, counter-screen for LRH-1 inverse agonist project, cell-based, luminescence, luciferase reporter (AID 651969). The class given is functional.
A further assay deals with Steroidogenic factor 1 (Homo sapiens, UniProt Q13285). Put plainly: Counterscreen for inverse agonists of the liver receptor homolog-1 (LRH-1; NR5A2): Luminescence-based cell-based high throughput dose response assay to identify inverse agonists of the Steroidogenic Factor 1 Nuclear Receptor (SF1; NR5A1). The class given is functional. On the technique in general: The purpose of a counterscreen is to sort out artefacts and off-target activity.
Sequence of Steroidogenic factor 1 (Q13285 whole entry): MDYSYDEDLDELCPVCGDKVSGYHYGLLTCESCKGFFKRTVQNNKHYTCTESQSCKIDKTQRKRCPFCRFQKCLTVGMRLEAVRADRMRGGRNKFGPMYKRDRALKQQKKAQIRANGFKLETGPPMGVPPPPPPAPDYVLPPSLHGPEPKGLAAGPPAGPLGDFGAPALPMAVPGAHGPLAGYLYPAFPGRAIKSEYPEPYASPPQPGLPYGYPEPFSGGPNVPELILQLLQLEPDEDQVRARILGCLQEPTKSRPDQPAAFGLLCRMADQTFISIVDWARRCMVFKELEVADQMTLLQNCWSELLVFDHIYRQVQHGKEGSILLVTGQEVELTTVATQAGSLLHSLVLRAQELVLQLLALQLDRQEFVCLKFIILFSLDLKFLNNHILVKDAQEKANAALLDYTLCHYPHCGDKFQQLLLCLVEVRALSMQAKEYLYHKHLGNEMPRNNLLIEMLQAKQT

In assay [6] the target is T2, Sentrin-specific protease 8 (Homo sapiens, UniProt Q96LD8).
T2 sequence (Q96LD8 whole entry): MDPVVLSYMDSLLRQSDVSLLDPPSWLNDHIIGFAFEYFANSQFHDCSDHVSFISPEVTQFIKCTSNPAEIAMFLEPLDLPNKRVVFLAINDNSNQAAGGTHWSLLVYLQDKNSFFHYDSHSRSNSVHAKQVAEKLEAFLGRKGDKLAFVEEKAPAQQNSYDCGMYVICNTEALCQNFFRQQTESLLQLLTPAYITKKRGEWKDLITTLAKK
The class given is functional.

Assay [7] has as its target T2, Sentrin-specific protease 8. The class given is functional. This is another data set of the same source.
For assay [8], the target named is T3, Rac GTPase-activating protein 1 (Homo sapiens, UniProt Q9H0H5).
T3 sequence (Q9H0H5 whole entry): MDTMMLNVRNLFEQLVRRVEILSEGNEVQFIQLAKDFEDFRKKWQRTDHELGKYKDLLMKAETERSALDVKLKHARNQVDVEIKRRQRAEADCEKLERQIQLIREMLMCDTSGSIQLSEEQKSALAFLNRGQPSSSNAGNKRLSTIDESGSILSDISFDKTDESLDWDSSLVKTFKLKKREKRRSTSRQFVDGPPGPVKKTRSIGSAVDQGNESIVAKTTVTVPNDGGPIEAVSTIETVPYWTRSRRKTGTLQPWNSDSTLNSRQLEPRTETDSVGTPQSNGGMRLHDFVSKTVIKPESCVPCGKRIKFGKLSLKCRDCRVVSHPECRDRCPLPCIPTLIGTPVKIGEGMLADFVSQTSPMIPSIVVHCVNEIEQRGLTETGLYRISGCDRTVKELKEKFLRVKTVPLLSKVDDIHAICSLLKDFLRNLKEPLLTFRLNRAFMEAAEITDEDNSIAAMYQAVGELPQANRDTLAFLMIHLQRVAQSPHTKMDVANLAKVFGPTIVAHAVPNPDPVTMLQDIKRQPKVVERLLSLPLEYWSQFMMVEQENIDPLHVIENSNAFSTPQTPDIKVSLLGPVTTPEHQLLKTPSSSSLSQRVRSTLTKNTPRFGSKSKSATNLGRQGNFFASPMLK
The experiment in a line: MgcRacGAP GTPase-activating activity inhibitors, confirmation, biochemical, ADP Hunter fluorescence, primary and confirmatory (AID 624330). The class given is functional.

The target of the next assay is Large T antigen (Simian virus 40, UniProt P03070). The class given is functional, Betapolyomavirus macacae.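 Note: Confirmatory-stage PubChem screen for compounds that inhibit SV40 T antigen.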
Sequence of Large T antigen (P03070 whole entry): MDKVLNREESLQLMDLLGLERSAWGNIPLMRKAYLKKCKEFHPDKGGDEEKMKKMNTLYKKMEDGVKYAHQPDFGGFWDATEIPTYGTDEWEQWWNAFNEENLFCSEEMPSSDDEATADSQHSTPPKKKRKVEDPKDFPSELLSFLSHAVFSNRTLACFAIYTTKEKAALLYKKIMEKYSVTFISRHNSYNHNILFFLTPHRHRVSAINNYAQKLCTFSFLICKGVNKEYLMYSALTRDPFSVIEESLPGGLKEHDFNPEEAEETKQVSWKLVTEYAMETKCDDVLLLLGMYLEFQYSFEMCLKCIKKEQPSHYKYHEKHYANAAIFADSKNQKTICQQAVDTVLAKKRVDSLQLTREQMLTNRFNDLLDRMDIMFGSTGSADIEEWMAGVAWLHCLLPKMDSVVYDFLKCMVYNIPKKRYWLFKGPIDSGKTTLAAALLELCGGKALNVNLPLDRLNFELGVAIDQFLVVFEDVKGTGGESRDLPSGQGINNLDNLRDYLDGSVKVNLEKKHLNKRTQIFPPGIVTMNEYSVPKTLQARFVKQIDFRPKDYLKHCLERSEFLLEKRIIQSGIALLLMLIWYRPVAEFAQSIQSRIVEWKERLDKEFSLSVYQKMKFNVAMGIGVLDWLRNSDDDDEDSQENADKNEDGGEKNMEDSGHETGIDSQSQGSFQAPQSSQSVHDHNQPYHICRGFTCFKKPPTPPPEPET
A further assay has as its target Prothrombin (Bos taurus, UniProt P00735). Put plainly: thrombin inhibition, dose response, biochemical, fluorescence polarization, uHTS hits (AID 602369). The class given is functional.
Assay [9] concerns the target T4, Carboxy-terminal domain RNA polymerase II polypeptide A small phosphatase 1 (Homo sapiens, UniProt Q9GZU7).
T4 sequence (Q9GZU7 whole entry): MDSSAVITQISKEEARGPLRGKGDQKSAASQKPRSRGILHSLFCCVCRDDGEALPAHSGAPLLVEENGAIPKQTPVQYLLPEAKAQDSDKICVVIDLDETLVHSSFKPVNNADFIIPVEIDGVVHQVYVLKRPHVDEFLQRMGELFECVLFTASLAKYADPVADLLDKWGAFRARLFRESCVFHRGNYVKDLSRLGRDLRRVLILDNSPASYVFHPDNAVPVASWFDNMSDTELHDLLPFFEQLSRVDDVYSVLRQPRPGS
The experiment in a line: inhibitors of CTDSP1, concentration-response testing, biochemical assay, absorbance-based, actives from ultra-high-throughput screening (AID 540297). The class given is functional.

In assay [10] the target is 26S proteasome non-ATPase regulatory subunit 14 (Homo sapiens, UniProt O00487). The experiment in a line: inhibition of proteasome subunit RPN11 – biochemical, fluorescence polarization, uHTS hits, confirmation (AID 602368). The class given is functional. (Polarisation of emitted light reports the rotation of a fluorescent probe.)
Sequence of 26S proteasome non-ATPase regulatory subunit 14 (O00487 whole entry): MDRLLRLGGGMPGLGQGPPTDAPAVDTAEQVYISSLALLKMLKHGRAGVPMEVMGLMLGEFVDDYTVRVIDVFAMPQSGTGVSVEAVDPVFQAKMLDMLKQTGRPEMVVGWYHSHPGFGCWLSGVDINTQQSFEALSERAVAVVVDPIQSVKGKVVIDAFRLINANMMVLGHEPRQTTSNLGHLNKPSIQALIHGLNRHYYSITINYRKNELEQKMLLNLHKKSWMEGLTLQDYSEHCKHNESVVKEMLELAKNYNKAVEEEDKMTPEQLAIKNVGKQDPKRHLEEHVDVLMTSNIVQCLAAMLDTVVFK
Assay [11] concerns the target 72 kDa type IV collagenase (Homo sapiens, UniProt P08253). The experiment in a line: Dose Response validation of uHTS RPN11 inhibitor hits using a MMP-2 Fluorescence assay. The class given is functional.
The target of the next assay is Genome polyprotein (dengue virus type 2, UniProt P29990). Put plainly: Dengue-2 NS5 methyltransferase inhibitors, primary screen, biochemical, confirmation dose response (AID 588689). The class given is functional.
Sequence of Genome polyprotein (P29990 2492-3391 limits assumed): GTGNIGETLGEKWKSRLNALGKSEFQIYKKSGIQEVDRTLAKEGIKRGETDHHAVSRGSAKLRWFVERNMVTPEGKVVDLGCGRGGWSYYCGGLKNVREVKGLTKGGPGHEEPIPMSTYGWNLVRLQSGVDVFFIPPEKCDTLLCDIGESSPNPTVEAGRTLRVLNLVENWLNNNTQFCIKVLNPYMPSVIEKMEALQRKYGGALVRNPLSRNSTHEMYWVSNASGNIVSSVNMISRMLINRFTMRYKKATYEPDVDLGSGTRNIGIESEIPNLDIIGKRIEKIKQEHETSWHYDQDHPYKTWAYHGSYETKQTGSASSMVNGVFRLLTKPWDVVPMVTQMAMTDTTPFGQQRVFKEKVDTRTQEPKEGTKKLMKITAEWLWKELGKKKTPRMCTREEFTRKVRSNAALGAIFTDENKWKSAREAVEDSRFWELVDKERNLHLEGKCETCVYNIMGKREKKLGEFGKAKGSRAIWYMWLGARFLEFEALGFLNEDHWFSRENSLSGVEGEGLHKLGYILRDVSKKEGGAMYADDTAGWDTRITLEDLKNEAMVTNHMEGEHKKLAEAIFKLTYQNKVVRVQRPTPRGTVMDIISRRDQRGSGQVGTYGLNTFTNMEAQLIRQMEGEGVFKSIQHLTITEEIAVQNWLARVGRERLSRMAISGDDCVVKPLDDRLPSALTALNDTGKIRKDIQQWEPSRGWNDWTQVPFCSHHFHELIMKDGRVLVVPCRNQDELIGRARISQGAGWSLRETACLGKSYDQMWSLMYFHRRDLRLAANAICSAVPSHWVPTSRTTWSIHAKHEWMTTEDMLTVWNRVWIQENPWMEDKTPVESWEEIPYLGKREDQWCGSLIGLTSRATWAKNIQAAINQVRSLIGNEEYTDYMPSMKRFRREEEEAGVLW
For the next assay, the target named is T5, Aminopeptidase N (Plasmodium falciparum FcB1/Columbia, UniProt O96935).
T5 sequence (O96935 whole entry): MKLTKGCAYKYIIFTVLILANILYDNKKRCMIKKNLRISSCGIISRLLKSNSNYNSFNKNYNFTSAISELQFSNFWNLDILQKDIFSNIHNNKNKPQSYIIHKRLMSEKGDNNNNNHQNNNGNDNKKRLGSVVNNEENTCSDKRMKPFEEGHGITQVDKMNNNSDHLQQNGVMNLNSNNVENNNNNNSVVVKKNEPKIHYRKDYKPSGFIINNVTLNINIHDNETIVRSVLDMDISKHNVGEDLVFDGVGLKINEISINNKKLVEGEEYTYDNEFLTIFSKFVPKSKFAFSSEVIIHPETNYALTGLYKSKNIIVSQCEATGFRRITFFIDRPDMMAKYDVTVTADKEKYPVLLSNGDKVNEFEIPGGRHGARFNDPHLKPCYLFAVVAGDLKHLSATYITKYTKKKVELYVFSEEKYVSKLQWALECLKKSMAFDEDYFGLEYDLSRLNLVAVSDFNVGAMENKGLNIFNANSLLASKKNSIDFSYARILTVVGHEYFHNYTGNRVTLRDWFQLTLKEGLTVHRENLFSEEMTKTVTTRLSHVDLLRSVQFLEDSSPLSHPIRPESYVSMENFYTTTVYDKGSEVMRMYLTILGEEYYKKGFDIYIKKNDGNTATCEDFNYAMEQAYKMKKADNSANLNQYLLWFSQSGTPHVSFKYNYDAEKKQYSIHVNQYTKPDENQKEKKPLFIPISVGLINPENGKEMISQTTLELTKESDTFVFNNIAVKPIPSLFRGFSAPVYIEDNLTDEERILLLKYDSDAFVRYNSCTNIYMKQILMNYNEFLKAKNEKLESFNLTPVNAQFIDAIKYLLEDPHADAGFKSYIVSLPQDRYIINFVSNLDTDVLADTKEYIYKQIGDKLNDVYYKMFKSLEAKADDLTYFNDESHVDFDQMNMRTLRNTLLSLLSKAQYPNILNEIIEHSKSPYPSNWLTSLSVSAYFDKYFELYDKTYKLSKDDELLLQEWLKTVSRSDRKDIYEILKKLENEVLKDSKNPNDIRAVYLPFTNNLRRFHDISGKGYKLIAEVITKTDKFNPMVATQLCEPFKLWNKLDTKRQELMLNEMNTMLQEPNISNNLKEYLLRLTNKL
The experiment in a line: P. falciparum M1AAP inhibitors, biochemical, fluorogenic H-Leu-NHMec substrate, 1536-well (AID 1445). Details: species or system Plasmodium falciparum 3D7, 3D7.

The nature of assay [12]: Fluorescence-based cell-based high throughput dose response assay for inhibitors of the interaction of nucleotide-binding oligomerization domain containing 2 (NOD2) and the receptor-interacting serine-threonine kinase 2 (RIPK2). The class given is functional. The note with it: Homo sapiens.

Activity calls are given as the source filed them. Bounds are passed on as bounds.

Sequence of Nuclear receptor subfamily 5 group A member 2 (O00482 whole entry): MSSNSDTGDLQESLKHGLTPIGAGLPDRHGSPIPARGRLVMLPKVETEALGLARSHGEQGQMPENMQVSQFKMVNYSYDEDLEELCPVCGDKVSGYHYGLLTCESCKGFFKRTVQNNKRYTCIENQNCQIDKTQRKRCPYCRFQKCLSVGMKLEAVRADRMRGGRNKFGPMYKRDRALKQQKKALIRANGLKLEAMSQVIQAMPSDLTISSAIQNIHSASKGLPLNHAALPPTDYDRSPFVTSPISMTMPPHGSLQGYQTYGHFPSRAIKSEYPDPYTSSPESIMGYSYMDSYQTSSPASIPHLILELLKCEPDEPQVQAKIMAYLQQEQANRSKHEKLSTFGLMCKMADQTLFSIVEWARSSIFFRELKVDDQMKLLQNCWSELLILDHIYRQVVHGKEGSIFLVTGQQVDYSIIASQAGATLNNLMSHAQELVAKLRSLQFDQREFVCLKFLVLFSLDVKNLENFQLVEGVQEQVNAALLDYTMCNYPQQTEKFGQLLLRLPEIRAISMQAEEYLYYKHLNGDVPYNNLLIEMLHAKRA
Sequence of 72 kDa type IV collagenase (P08253 whole entry): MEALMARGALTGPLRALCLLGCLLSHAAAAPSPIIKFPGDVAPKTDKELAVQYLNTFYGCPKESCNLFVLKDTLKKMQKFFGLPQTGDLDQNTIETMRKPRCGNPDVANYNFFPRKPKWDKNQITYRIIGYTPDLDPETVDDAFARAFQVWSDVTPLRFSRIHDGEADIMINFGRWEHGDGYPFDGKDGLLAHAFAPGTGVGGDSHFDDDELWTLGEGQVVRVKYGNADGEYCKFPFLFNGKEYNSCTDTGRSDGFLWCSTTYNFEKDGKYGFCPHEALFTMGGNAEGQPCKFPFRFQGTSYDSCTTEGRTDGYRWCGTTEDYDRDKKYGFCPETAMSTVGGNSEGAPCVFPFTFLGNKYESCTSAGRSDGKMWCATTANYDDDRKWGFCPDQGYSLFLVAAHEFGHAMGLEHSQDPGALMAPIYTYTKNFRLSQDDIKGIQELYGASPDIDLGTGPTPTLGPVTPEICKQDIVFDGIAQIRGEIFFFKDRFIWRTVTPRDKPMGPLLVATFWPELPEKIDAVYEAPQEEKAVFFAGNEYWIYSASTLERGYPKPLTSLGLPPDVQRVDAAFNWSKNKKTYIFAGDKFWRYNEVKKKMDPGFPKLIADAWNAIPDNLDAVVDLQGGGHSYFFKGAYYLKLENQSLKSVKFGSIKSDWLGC

Take `O=C(Nc1nnc(S(=O)(=O)Nc2ccccc2)s1)c1ccccc1Cl`: the EC50 in assay [1] was > 53 µM (inactive). Further, the IC50 in [2] was 7.38 µM (active); in [3], < 368 nM (active).

In the case of `O=C(COc1ccc2c3c(c(=O)oc2c1)CCCC3)NCCCN1CCOCC1`, the IC50 (in [4]; in assay [5]; at Steroidogenic factor 1) was 35.9 µM (inactive) in each case.

Regarding `Cc1n[nH]c(O)c1C(c1c(C)n[nH]c1O)c1cn(C)c2ccccc12`, the IC50 was 11.9 µM (active) in [6] and 11.2 µM (active) in assay [7].

For the compound `O=C(O)c1ccc(COc2ccccc2C=C2C(=O)c3ccccc3C2=O)cc1`, the IC50 in assay [8] is 85.9 µM (active); on Large T antigen, 35.2 µM (active); at Prothrombin it was > 100 µM (inactive); in [9], 5.86 µM (active); in assay [10], 17.1 µM (active); in [11] it was > 100 µM (inactive). The IC50 is 6.33 µM (active) at Genome polyprotein, 1.47 µM (active) in assay [2], 74.9 µM (active) on Aminopeptidase N and < 368 nM (active) in [3]. Besides, the EC50 in assay [1] was 10 µM (active).

Regarding `O=C1/C(=C/c2ccccc2)CN(C(=O)CCN2CCOCC2)C/C1=C\c1ccccc1`, the IC50 in assay [12] is 6.29 µM (active).

In the case of `C[C@H](CO)N1C[C@H](C)[C@H](CN(C)Cc2ccncc2)Oc2cc(-c3ccccc3F)ccc2S1(=O)=O`, the IC50 in assay [4] is 1.33 µM (active); in assay [5], 15.5 µM (inactive); at Steroidogenic factor 1, 1.33 µM (active).

The values above are taken from ChEMBL document CHEMBL1201862, “PubChem BioAssay data set” (2004).
